# Measured values as given in patent US6489350B1, “Methods for treating neuropathic pain using heteroarylmethanesulfonamides” (Elan Pharmaceuticals, Inc., priority 1999, dated 2002).
# “Also recorded” adds a separate entry of the source.
# Experiments:
# [1] = system: formalin-evoked behavior in diabetic rats; conditions: 50 mg/kg i.p. 30 min pre-test; 5.0% formalin; both control and diabetic rats; cited from earlier work
# [2] = system: Rats with Streptozotocin (STZ)-Induced Diabetes Mellitus and Consequent Diabetic Neuropathy; experiment: Paw withdrawal force (mechanical hyperalgesia) in rats with streptozotocin-induced diabetes; assay type: in vivo, Male Wistar rats; conditions: for Paw withdrawal threshold force, Week 1 Mean: Week 1, before drug treatment (baseline); for Paw withdrawal threshold force, Week 2 Mean: Week 2, before drug treatment (baseline); for Paw withdrawal threshold force, Week 3 Mean: Week 3, before drug treatment (baseline); for Paw withdrawal threshold force, Week 4 Mean: Week 4, before drug treatment (baseline)
# Method: Male Wistar rats (250-300 g), following an overnight fast, were made diabetic with 55 mg/kg i.p. streptozotocin (Sigma, St. Louis, Mo., USA). Tail ven blood was sampled 48 h later and glucose estimated by reflectance photometry (Reflocheck, Boehringer Mannheim). All STZ-treated rats had blood glucose >15 mmol/l and were included in the study. Animals were housed in boxes of three or four and maintained with food and water ad libitum for up to 6 weeks. non-diabetic control rats were housed in identical conditions. Each week (Friday) paw—pressure latency was measured as described immediately below.
# A force was applied at a constant rate with a cone-shaped piston to the upper surface of the rat hindpaw until paw withdrawal; the force triggering withdrawal is measured as the “paw withdrawal force”. An arbitrary cut-off force of 240 g was adopted to preclude traumatic damage. Rats are trained such that latency is measured weekly, on Fridays.
# At the start of week 5, drug treatments as defined for each of the groups set out below were commenced, such that 5 treatments preceded paw pressure testing. The injections and pressure test were timed so that, for each rat, the pressure test was made between 30 and 35 min after injection.
# Monday of week 1 the rats were injected with streptozotocin and blood glucose determinations were made Wednesday of that week, on the Friday the 1st paw pressure test was performed. In weeks 2, 3, and 4 only paw pressure tests were performed on each of the Fridays. In week 5 treatments of groups C, D and E were begun with either zonisarnide (Groups C and D) or MK-801 (Group E) and paw pressure tests were performed on all groups on Friday.
# Group B was given a single dose of zonisamide at 50 mg/kg on the Friday of week 6 and paw withdrawal force measured 30 min later.
# Group D was maintained without treatment for week 6 (drug “washout”) and measured again on the Friday of week 6.
# Data are means with standard deviations. Zonisamide was given once daily (p.o.) between 08:30 and 09:00 for 5 days during Week 5. MK-801 was given at 0.1 mg/kg i.p. twice daily (morning and evening). All measurements were made on Fridays between 10:30 and 13:30 hr. In Week 6, the designated “diabetic untreated” group (Group B) was given a single p.o. dose of 50 mg/kg zonisamide 2-3 h before measurement. For Week 6, drug treatment was withdrawn from Group D (last dose on Friday of week 5).
# [3] = system: formalin-induced hyperalgesia in rats; experiment: Formalin test model in rats (paw flinches); assay type: in vivo, rat
# Method: The formalin test model in rats was conducted based on the protocol developed and reported by Malmberg A. B. and Yaksh T. L. (1992) as an animal model of hyperalgesia.
# The formalin pain test produces an “early” pain that rapidly rises and falls in intensity during the first five minutes after the injection, followed by a “late” pain, which begins about 15 minutes after the injection and persists for about an hour. It has been observed that this formalin-induced pain continues even after the nerves carrying pain signals have been blocked which implies that long-lasting pain is determined not only by sensory stimulation during the discomfort but also by brain processes that persist without continual priming.
# Eight (8) animals received 100 mg/kg zonisamide via oral (gastric lavage tube) administration, and eight (8) animals received sterile water as a vehicle. On the morning of testing, a small metal band (0.5 g) was loosely placed around the right hind paw. After 1 hour, the rat was placed in a cylindrical plexiglass changer for adaptation. After one additional hour, the rat was then placed in a similar cylindrical chamber that was placed on the sensing pad of an automated formalin device that senses the movement of the metal band in the space above the area above the pad. The formalin test involved injecting 50 μl of 5% formalin into the dorsal surface of the right hindpaw. […] These flinches were counted automatically and continuously over the following one-hour interval. At one hour the animal was removed and sacrificed by carbon dioxide inhalation.
# The results of the tests are presented in FIGS. 2A as summations at 5-minute intervals, and in 2B broken down into phase responses. (Phase I being the “early” pain response to the formalin injection and phase II, IIA and IIB being “late” phase parts of the facilitated response state discussed above and in the Detailed Description).
# [4] = Group E diabetic, MK-801 0.1 mg/kg group
# [5] = Group C diabetic, zonisamide 20 mg/kg group
# [6] = Group D diabetic, zonisamide 50 mg/kg group
# [7] = 100 mg/kg orally prior to 5% formalin injection, vs water vehicle
smiles,measurement,setting,value
"NCC1(CC(=O)O)CCCCC1 [Gabapentin, 1-(aminomethyl)cyclohexaneacetic acid]",Flinching during phases 1 and 2 of the formalin test,[1],suppressed flinching
"C[C@]12N[C@H](Cc3ccccc31)c1ccccc12 [MK-801, dizocilpine]","Paw withdrawal threshold force, Week 1 Mean",[2]; [4],214.9 g
same,"Paw withdrawal threshold force, Week 2 Mean",[2]; [4],207.1 g
same,"Paw withdrawal threshold force, Week 3 Mean",[2]; [4],200.0 g
same,"Paw withdrawal threshold force, Week 4 Mean",[2]; [4],191.4 g
same,"Paw withdrawal threshold force, Week 5 Mean","[2]; Group E diabetic, 0.1 mg/kg i.p. twice daily for 5 days during Week 5",221.8 g
"NS(=O)(=O)Cc1noc2ccccc12 [zonisamide, 1,2-benzisoxazole-3-methanesulfonamide]",Effect on hyperalgesia (change in paw withdrawal force),"[2]; 20 mg/kg p.o. for 5 days, reduction in tolerated force still present and significant (p<0.0002)",attenuated this hyperalgesia
same,Effect on hyperalgesia (change in paw withdrawal force),"[2]; 50 mg/kg p.o. daily for 5 days, p=0.703, paired t-test",obliterated the change in paw withdrawal force; also recorded: increase in force necessary to evoke a hyperalgesic pain response
same,Activity against mechanical hyperalgesia (conclusion),"[2]; 4-5 weeks of STZ diabetes in rats, dose related",active against the mechanical hyperalgesia
same,"Paw withdrawal threshold force, Week 6 Mean","[2]; Group B, previously untreated diabetic rats, single p.o. dose of 50 mg/kg in Week 6",213.6 g
same,"Paw withdrawal threshold force, Week 1 Mean",[2]; [5],212.2 g
same,"Paw withdrawal threshold force, Week 2 Mean",[2]; [5],206.4 g
same,"Paw withdrawal threshold force, Week 3 Mean",[2]; [5],199.6 g
same,"Paw withdrawal threshold force, Week 4 Mean",[2]; [5],190.0 g
same,"Paw withdrawal threshold force, Week 5 Mean","[2]; Group C diabetic, 20 mg/kg p.o. once daily for 5 days during Week 5",195.0 g
same,"Paw withdrawal threshold force, Week 1 Mean",[2]; [6],212.72 g
same,"Paw withdrawal threshold force, Week 2 Mean",[2]; [6],208.9 g
same,"Paw withdrawal threshold force, Week 3 Mean",[2]; [6],200.7 g
same,"Paw withdrawal threshold force, Week 4 Mean",[2]; [6],191.5 g
same,"Paw withdrawal threshold force, Week 5 Mean","[2]; Group D diabetic, 50 mg/kg p.o. once daily for 5 days during Week 5",214.9 g
same,"Paw withdrawal threshold force, Week 6 Mean","[2]; Group D diabetic, Week 6, drug washout, last 50 mg/kg dose on Friday of week 5",186.2 g
same,Effect of withdrawal and washout of the drug on hyperalgesia,"[2]; one week after treatment with 50 mg/kg for 5 days, p<0.002, 50 mg/kg",return of the hyperalgesia; also recorded: force required to cause a paw withdrawal reaction was reduced
same,Effect on mechanical hyperalgesia after a single dose,"[2]; previously untreated diabetic rats, single 50 mg/kg dose, p<<0.0001, 50 mg/kg",obliterated the mechanical hyperalgesia; also recorded: increase in force necessary to evoke a hyperalgesic pain response
same,Effect on Phase I flinches,[3]; [7],not significant effect
same,Effect on Phase II flinches,[3]; [7],not significant effect
same,Effect on Phase IIA flinches,[3]; [7],statistically significant effect; also recorded: significantly reduced
same,Effect on Phase IIB flinches,[3]; [7],not significant effect
same,Behavioral deficits,"[3]; 100 mg/kg orally, rats",No behavioral deficits were noted
